Data on 9 compounds can be found in PMC5410595, “In Vitro and In Silico Antidiabetic and Antimicrobial Evaluation of Constituents from Kickxia ramosissima (Nanorrhinum ramosissimum)” (Frontiers in Pharmacology, 2017).

Experiment [1] relates to Leishmania infantum, MHOM/MA/67/ITMAP263. Description: Antimicrobial screening panel: Leishmania infantum. Format: cell-based. The method, then: (§1) Fractions and isolated compounds were evaluated for antimicrobial activity in an integrated screening panel, also including the human MRC-5 cell line to assess selectivity, as reported before ([Cos et al., 2006]; [Mesia et al., 2008]; [Baldé et al., 2010]; [Amin et al., 2016]).

The test system of experiment [2] is formation of AGEs (BSA-glucose). Description: BSA-glucose antiglycation assay. Format: biochemical. Particulars: for IC50: read-out: Protein glycation BSA-Glucose IC50. The method, then:
(§2) The BSA-glucose and BSA-MGO antiglycation assays were performed as reported before ([Amin et al., 2016]). The test protocol is attached as Supplementary Material ([Amin et al., 2016]).
28 Antiglycation assay (BSA-Glucose assay)
29 In the BSA-glucose assay the prevention of AGEs formation is investigated by determining the
30 fluorescence of the complex formed after incubation of a sugar (glucose) with protein (BSA) in
31 the presence or absence of test compounds. The antiglycation assay was performed according to
32 the method developed by Matsuura et al. (2002) with minor modifications. […]
37 DMSO. The mixtures were incubated at 60°C for 48 h. After incubation, the reaction mixture
38 was allowed to cool down at room temperature. Then 100 µL reaction mixture was transferred
39 to a new plastic tube (1.5 mL) and the reaction was stopped by adding 10 μL of 100% (w/v)
40 trichloroacetic acid (TCA) and to precipitate proteins. The TCA-added mixture was kept at 4°C
41 for 10 min, followed by centrifugation (14000 rpm, 4 °C, 4 min). The supernatant containing
42 unreacted D-glucose, test sample and interfering substances was discarded, whereas the
44 8.1 mM Na2HPO4, 2.68 mM KCl, 1.47 mM KH2PO4, […]). The change in fluorescence
46 of AGEs was monitored by spectrofluorometry (Tecan™ Infinite M200, Giessen, The
47 Netherlands). In order to eliminate interference by autofluorescence of the test compounds, a
48 parallel incubation of test substance with BSA at 60°C without D-glucose was performed for all
50 final concentration) were used as reference compounds.
51 The AGEs inhibition was calculated as
55 where F is the fluorescence intensity.
56 calculated using Sigma plot® 13.0.

Experiment [3] deals with formation of AGEs (BSA-MGO). Nature of the experiment: BSA-MGO antiglycation assay. Type of experiment: biochemical. The method, then: as §2
60 Protein-glyoxal interaction (BSA-MGO assay)
61 The antiglycation assay using methylgloxyl (MGO) was performed according to the method
62 developed by Peng et al. (2007) with slight modifications. Briefly, methylglyoxal (135 μL, 5.75
63 mM) was incubated with BSA (135 μL, 10 mg/mL) dissolved in phosphate buffer (50 mM, pH
64 7.4, containing sodium azide (0.02%), added to prevent bacterial growth) and test compounds
65 (30 μL) at different final concentrations (1.5 – 0.023 mM) in 100% DMSO. The reaction
66 mixture was incubated at 37 °C for one week. Control solutions only contained methylglyoxal
67 (135 μL, 5.75 mM) BSA (135 μL, 1 0mg/mL) and DMSO (100%) only. The blank samples of
68 similar composition were also prepared simultaneously and kept at 4 °C for one week. The
70 440) due to formation of AGEs was monitored by spectrofluorometry (Tecan® Infinite M200,
71 Giessen, The Netherlands). Aminoguanidine (3-0.046 mM final concentration) was used as
72 reference compound. The AGEs inhibition was calculated as
74 % AGEs inhibition = [1–(S–Sb)/(C–Cb)] x 100
76 where S and C were fluorescence of test samples (in DMSO) and control (test mixtures
77 containing only DMSO) incubated at 37 °C, and where Sb and Cb were fluorescence for
78 samples incubated at 4 °C.
79 using Sigma plot® 13.0.

Experiment [4] addresses T1, α-glucosidase from Saccharomyces cerevisiae (Saccharomyces cerevisiae, UniProt P53341).
T1 construct: purchased Sigma-Aldrich
Description: α-glucosidase inhibition assay. Format: biochemical. Also on record: inhibition: dose or concentration left out as unconfirmed. The note with it: read-out: α-glucosidase % inhibition. The protocol: The α-glucosidase assay was carried out according as reported before ([Amin et al., 2016]). The test protocol is attached as Supplementary Material ([Amin et al., 2016]).
81 Inhibition of α-glucosidase.
82 α-Glucosidase inhibitory activity was assayed according to method adopted by Choudhary et al.
83 (2010) with some modifications. Briefly, 50 µL of a solution of α-glucosidase from
84 Saccharomyces cerevisiae (0.2 U/mL in 0.1 M phosphate buffer at pH 6.8, Sigma-Aldrich, St.
85 Louis, MO, USA) was incubated with 20 μL of test compounds or extracts at different
86 concentrations (ranging from 6 mM – 0.372 mM in 25% DMSO for isolated constituents or
87 from 5 mg to 0.039 mg/mL for extracts) at 37 °C for 10 min. Then 50 μl of the substrate,
88 p-nitrophenyl-α-D-glucopyranoside (0.7 mM stock, final concentration 0.29 mM) was added to
89 the reaction mixture and incubated again for 30 min at 37 °C. […]
91 from 834 µg to 6.5 µg/mL for extracts. The reaction was stopped by adding Na2CO3 (100 μl,
92 200 mM stock) solution and the absorbance was measured at 400 nm. Final DMSO
93 concentration remained below 7.5% during the assay.
94 concentration) was used as reference compound.
96 The % inhibition was calculated using the following formula:
98 % Inhibition = 100 – [OD (test sample) / OD (control)] × 100
100 Alpha-glucosidase inhibition was categorized as mild (1-25%), moderate (26-50%), high

The target of experiment [5] is T2, 15-LOX from soybean (Glycine max, UniProt P08170).
T2 sequence (P08170 1-839): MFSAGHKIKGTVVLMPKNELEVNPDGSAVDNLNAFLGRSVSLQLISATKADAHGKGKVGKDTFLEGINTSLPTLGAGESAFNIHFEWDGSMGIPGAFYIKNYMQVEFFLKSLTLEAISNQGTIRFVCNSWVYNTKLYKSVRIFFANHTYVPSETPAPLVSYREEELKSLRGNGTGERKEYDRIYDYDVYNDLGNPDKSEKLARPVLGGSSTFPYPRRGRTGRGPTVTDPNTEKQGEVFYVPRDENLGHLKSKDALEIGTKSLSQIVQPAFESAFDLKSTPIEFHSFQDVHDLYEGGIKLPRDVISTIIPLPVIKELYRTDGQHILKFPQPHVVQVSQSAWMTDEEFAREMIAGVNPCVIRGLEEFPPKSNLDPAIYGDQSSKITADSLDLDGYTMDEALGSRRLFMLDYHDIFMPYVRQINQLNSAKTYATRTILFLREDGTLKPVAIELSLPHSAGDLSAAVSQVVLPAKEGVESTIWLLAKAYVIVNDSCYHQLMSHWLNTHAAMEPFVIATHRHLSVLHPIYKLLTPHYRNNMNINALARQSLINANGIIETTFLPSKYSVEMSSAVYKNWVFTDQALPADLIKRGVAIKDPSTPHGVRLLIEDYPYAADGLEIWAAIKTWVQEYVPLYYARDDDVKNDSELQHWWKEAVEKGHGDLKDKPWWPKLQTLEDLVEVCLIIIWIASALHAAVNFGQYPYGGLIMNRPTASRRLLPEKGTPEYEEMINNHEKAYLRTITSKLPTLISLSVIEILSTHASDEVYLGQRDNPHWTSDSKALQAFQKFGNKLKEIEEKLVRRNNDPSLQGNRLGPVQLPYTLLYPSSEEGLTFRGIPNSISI
Description: 15-lipoxygenase inhibition assay. The note with it: at the highest test concentration. Type of experiment: biochemical. The method, then: The soybean LOX assay is used as an indication of anti-inflammatory activity ([Muller, 1994]), and therefore during the present investigation, 15-LOX from soybean was used for peroxidation of linoleic acid, and inhibition was measured as described previously with slight modifications ([Malterud and Rydland, 2000]). Briefly, 12.5 μL (2–0.062 mM) of sample was dissolved in DMSO, and added to 487.5 μL of enzyme solution (200 U/mL). The mixture was incubated at room temperature for 5 min. Absorbance was recorded immediately after the addition of 500 μL of substrate (250 μM linoleic acid in 0.2 M borate buffer, pH 9) every minute up to 5 min at 234 nm.
% inhibition of enzyme activity was calculated as,
%inhibition of enzyme activity=([ΔA1/Δt]−[ΔA2/Δt])/(ΔA1/Δt)×100
where ΔA1/Δt and ΔA2/Δt are the increase rate in absorbance at 234 nm for sample without test substance and with test substance, respectively.

The subject of experiment [6] is Trypanosoma cruzi, Tulahuen LacZ, clone C4. Description: Antimicrobial screening panel: Trypanosoma cruzi. Type of experiment: cell-based. The protocol:
as §1

For experiment [7], the system named is AAPH induced linoleic acid peroxidation. Nature of the experiment: Inhibition of linoleic acid lipid peroxidation, AAPH assay. Type of experiment: biochemical. Particulars: slope of inhibition time (Tinh) vs. concentration of antioxidant. The protocol:
The inhibition of linoleic acid lipid peroxidation was studied according to [Liegeois et al. (2000)] and [Rajic et al. (2010)]. Briefly, 10 μL of a 16 mM linoleic acid dispersion and 10 μL of the test compound (8-1 μM final concentration) were added to the UV cuvette containing 0.93 mL of 0.05 M phosphate buffer, pH 7.4. The oxidation reaction was initiated under air by the addition of 50 μL (40 mM) of AAPH solution. The rate of oxidation at 37°C was monitored by recording the increase of absorption at 234 nm caused by conjugated diene hydroperoxides. The results were compared to the standard inhibitor (Trolox). The AOP is defined as the slope of the curve representing the inhibition time of oxidation (Tinh) vs. the concentration of antioxidant and is expressed in min/μM.

The subject of experiment [8] is Escherichia coli. Nature of the experiment: Antimicrobial screening panel: Escherichia coli. Format: cell-based. The protocol: as §1
In experiment [9] the test system is Microsporum canis, B68128 Janssen strain. Description: Antimicrobial screening panel: Microsporum canis. Type of experiment: cell-based. The method, then: as §1
Experiment [10] has as its system Trypanosoma brucei, Squib 427. Nature of the experiment: Antimicrobial screening panel: Trypanosoma brucei. Type of experiment: cell-based. The method, then: as §1

The structures appear in SMILES notation. Converted amounts (≈) assume the structure as drawn. “And” between values parts separate entries of the source, which are not always exact repeats. Equal values may be shown once. “Also recorded” adds a separate entry of the source.

The IC50 is the concentration at which inhibition is half-maximal. One may read the inhibition as how much of the control response was suppressed.

T1 sequence (P53341 whole entry): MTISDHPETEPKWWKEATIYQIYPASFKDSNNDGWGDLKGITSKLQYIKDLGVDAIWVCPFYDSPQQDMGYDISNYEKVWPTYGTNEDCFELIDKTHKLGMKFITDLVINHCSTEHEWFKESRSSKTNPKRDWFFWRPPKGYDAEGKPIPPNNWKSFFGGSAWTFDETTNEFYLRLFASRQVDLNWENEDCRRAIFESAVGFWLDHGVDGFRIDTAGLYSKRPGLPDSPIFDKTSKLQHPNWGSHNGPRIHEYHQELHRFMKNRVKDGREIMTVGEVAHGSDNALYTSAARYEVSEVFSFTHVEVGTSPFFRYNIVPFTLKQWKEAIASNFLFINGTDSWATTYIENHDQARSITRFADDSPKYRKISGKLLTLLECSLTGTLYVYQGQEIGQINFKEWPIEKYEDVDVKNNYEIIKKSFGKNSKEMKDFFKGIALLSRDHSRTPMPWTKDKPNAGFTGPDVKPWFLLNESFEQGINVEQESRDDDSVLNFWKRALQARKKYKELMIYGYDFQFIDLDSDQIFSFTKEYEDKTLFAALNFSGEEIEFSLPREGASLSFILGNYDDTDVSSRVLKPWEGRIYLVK

In [1], `CCCCCCCCCCCCCCCCOP(=O)([O-])OCC[N+](C)(C)C` [miltefosine] gave a 50% inhibitory concentration (IC50) of 9.02 µM.

`O=c1c(O)c(-c2ccc(O)c(O)c2)oc2cc(O)cc(O)c12` [Quercetin, reference compound]: the IC50 in [2] amounted to 230 µM.

Turning to `CC1(O)C(Cl)C(O)C2(O)C=COC(OC3OC(CO)C(O)C(O)C3O)C12` (centres unmarked) [Compound 4, Linarioside], in experiment [2] (isolated constituents, at the highest test concentration of 3 mM), the “Protein glycation BSA-Glucose % inhibition” value is “did not present any activity; also recorded: no activity”. Besides, in [3] (isolated constituents, highest test concentration), the “Protein glycation BSA-MGO % inhibition” value is 9%. In addition, in [4], the inhibition is 29%. Further, the “15-LOX assay % inhibition” value in [5] is on record as 8%.

Compound `O=C(Cn1ccnc1[N+](=O)[O-])NCc1ccccc1` [benznidazol, reference compound] had an IC50 in experiment [6] of 2130 nM.

As for `N=C(N)NN` [Aminoguanidine, reference compound], the “IC50, BSA-glucose assay” value in experiment [2] (fractions and positive control) worked out at 199 µg/mL (≈ 2690 µM). For the same compound, the IC50 in [2] was found to be 1750 µM; in experiment [3] (read-out: Protein glycation BSA-MGO IC50), 150 µM.

Take `Cc1c(C)c2c(c(C)c1O)CCC(C)(C(=O)O)O2` (centres unmarked) [Trolox, reference compound]: the “AAPH assay AOP (antioxidant power)” value in [7] was 14.12 min/μM and 14.12^c min/μM.

On to `O=C(N[C@H](CO)[C@H](O)c1ccc([N+](=O)[O-])cc1)C(Cl)Cl` [chloramphenicol], for which the IC50 in experiment [8] amounted to 2420 nM.

In experiment [9], `CN(C/C=C/C#CC(C)(C)C)Cc1cccc2ccccc12` [terbinafin] registered a 50% inhibitory concentration (IC50) of 1380 nM.

`Cc1ccc(C(=O)Nc2ccc(S(=O)(=O)O)c3cc(S(=O)(=O)O)cc(S(=O)(=O)O)c23)cc1NC(=O)c1cccc(NC(=O)Nc2cccc(C(=O)Nc3cc(C(=O)Nc4ccc(S(=O)(=O)O)c5cc(S(=O)(=O)O)cc(S(=O)(=O)O)c45)ccc3C)c2)c1` [suramine] returned an IC50 in experiment [10] of 30 nM.
